This note sets out measurements from ChEMBL document CHEMBL1155188, “Sesquiterpenoids from Pilea cavaleriei subsp. crenata” (Bioorg Med Chem Lett, 2009).

In brackets after ≈: the same amount, converted by molar mass. Activity calls are given as the source filed them. The calls are words filed in the database; no cut-off is given here.

What is called IC50 is the point on the concentration scale where inhibition reaches its midpoint. By MIC is commonly meant the lowest concentration found to suppress growth.

Test [1] relates to MCF7. As to the kind of experiment: Cytotoxicity against human MCF7 cells after 48 hrs by MTT assay. The following applies: MCF7, 48 h. It counts as functional, cell-based.
The subject of test [2] is SGC-7901. As to the kind of experiment: Cytotoxicity against human SGC7901 cells after 48 hrs by MTT assay. It counts as functional, cell-based. A general note: Tetrazolium assays rely on reduction of a dye to a coloured formazan, in cell work by metabolically active cells.
Test [3] is described as follows: Cytotoxicity against human GLC82 cells after 48 hrs by MTT assay. The class given is functional, cell-based.
The test system of test [4] is Staphylococcus aureus. Briefly: Antibacterial activity against Staphylococcus aureus by microdilution assay. The class given is functional. (In general: Broth dilution looks for growth in wells or tubes with falling amounts of substance.)
For test [5], the system named is EJ. Briefly: Cytotoxicity against human EJ cells after 48 hrs by MTT assay. It counts as functional, cell-based.
Test [6] concerns K562. As to the kind of experiment: Cytotoxicity against human K562 cells after 48 hrs by MTT assay. The class given is functional, cell-based.
The subject of test [7] is SK-OV-3. Briefly: Cytotoxicity against human SKOV3 cells after 48 hrs by MTT assay. It counts as functional, cell-based.
Test [8] is described as follows: Cytotoxicity against human AGZY cells after 48 hrs by MTT assay. It counts as functional, cell-based.
Test [9] concerns A549. Briefly: Cytotoxicity against human A549 cells by SRB assay. It counts as functional, cell-based. (The SRB assay estimates cell density from bound dye.)
A short description of test [10]: Cytotoxicity against human BIU87 cells after 48 hrs by MTT assay. The class given is functional, cell-based.
In test [11] the test system is Escherichia coli. Briefly: Antibacterial activity against Escherichia coli by microdilution assay. The class given is functional, organism-based.
Where [12] appears, read: Homo sapiens, K562, 48 h, read-out: IC50.

As to `C=C1CC/C=C(\C)C[C@H](OC(=O)/C=C/c2ccc(O)cc2)CC(C)(C)C[C@@H]1OO`, the IC50 in test [1] is 23.4 µg/mL (≈ 58.4 µM); in test [2] (sgc-7901), “Not Active”; in test [3] it was “Not Active”; in [5] it was “Not Active”; in test [6] (setting [12]) it was 57.4 µg/mL (≈ 143 µM); in [7], “Not Active”. Also, the IC50 result was “Not Active” in test [8] (agzy), 33.4 µg/mL (≈ 83.3 µM) in [9] and “Not Active” in test [10]. In [4], this molecule registered an MIC of 45 µg/mL (≈ 112 µM). Also, in test [11], the MIC result was “inactive”.

On to GENTAMICIN, for which the MIC in test [4] and in test [11] was 0.05 µg/mL in each case.

In the case of `C=C1CC/C=C(\C)C[C@H](OC(=O)/C=C/c2ccc(O)c([N+](=O)[O-])c2)CC(C)(C)C[C@@H]1O`, the IC50 result in [2] (sgc-7901), in [3], in [5], in test [6] (k562), in test [7] and in [8] (agzy) was “Not Active” in each case. The IC50 result in test [10] is listed as “Not Active”.

Turning to `C/C1=C\CC(C)(C)C[C@@H](OC(=O)/C=C/c2ccc(O)cc2)C/C(C)=C/CC1`, the IC50 in test [1] is 40.5 µg/mL (≈ 110 µM); in test [2] (Homo sapiens, SGC-7901, 48 h, read-out: IC50), 49.4 µg/mL (≈ 134 µM); in test [3], “Not Active”; in test [5], “Not Active”; in [6] (setting [12]), 12 µg/mL (≈ 32.6 µM); in [7] it was “Not Active”. The IC50 in test [8] (Homo sapiens, AGZY, 48 h, read-out: IC50) is 27.8 µg/mL (≈ 75.5 µM); in test [9], 25.6 µg/mL (≈ 69.5 µM); in [10] it was “Not Active”. For the same molecule, the MIC entry in test [4] and in test [11] was “inactive” in each case.

Consider `CC(C)[C@@H]1CC[C@]2(C)[C@H]3CC[C@]2(C)[C@H](OC(=O)/C=C/c2ccc(O)cc2)[C@@H]13`, for which the half-maximal inhibitory concentration (IC50) entry is “Not Active” in [2] (sgc-7901); “Not Active” in test [3]; “Not Active” in test [5]; 41.7 µg/mL (≈ 113 µM) in test [6] (setting [12]); “Not Active” in test [7]; “Not Active” in test [8] (agzy). Also, the IC50 entry in [10] was “Not Active”.

Turning to `O=c1[nH]cc(F)c(=O)[nH]1` [FLUOROURACIL], 2 µg/mL (≈ 15.4 µM) corresponded to half-maximal inhibition in test [9] (IC50).
